From US20070060558A1 (PALUMED S.A., priority 2004, published 2007)
Converted amounts (≈) assume the structure as drawn. Where two headings read alike, the source gives them in different places.

Key:
S. pyogenes CIP 56.41T = assay: Antibacterial activity (MIC/MBC); type: cell-based, Streptococcus pyogenes; settings: Streptococcus pyogenes, CIP56, S. pyogenes CIP 56.41T; for MIC: read-out: MIC
Oral toxicity in mice = type: in vivo; settings: counted on day 30
Protocol: The test compound: PA 1046 (example 5) was emulsified in a mixture of Tween 80/methylcellulose in water (0.5% of Tween 80, 0.6% of methylcellulose and 98.9% of water) at different concentrations. The emulsion was administered orally to 6-week-old female Swiss CD1 mice (Janvier) on day 0 and on day 2. The number of survival mice was counted on day 30.

[1] = tested on: Human lung fibroblast cells (ATCC CCL-171); assay: Cytotoxicity (MTT) assay; settings: human, 18 hr
Protocol: Cellular toxicity was measured by a colorimetric assay that makes use of the tetrazolium salt, MTT. Human lung fibroblast cells (ATCC CCL-171) were plated in 96-well plates at 10^4 cells per well and incubated under 5% CO2 at 37° C. for 24 hr to allow adherence of cells to the plate. Test compounds were prepared as a stock solution at 1 mg/mL in 1% DMSO/water and diluted with water for the serial dilutions (500-7.8 μg/mL). Cells underwent a 18 hr treatment under 5% CO2 at 37° C. with experimental drugs. Corresponding controls received either no drug treatment or treatment with SDS (sodium dodecyl sulfate). The optical density of each sample was read on a microplate spectrophotometer reader at 600 nm and cell survival was expressed as a fraction of that of untreated controls. A drug is said cytotoxic when this fraction is ≦−30%

[2] = tested on: Staphylococcus aureus MSSA CIP 4.83; assay: Antibacterial activity (MIC/MBC); type: cell-based; settings: for MBC: read-out: MBC
[3] = tested on: Staphylococcus aureus MSSA 53.154; assay: Murine experimental septicaemia, in vivo efficacy; parameters: species or system mice; settings: sc, mice, subcutaneously at 1 and 6 h post infection, survival on day 9, hybrid molecules formulated in water as their sodium salt, read-out: ED50
Protocol: Experimental septicaemia was induced in mice as follows. Briefly, male Swiss OF1 mice (IFFA CREDO-Charles River) weighing 18 to 20 grams were infected intraperitoneally with 0.5 mL of a bacterial suspension containing 8.5×10^7 cfu of Staphylococcus aureus MSSA 53.154 (Institut Pasteur). The hybrid molecules were administered subcutaneously at 1 and 6 h post infection. Control and treatment groups at each dose were composed of seven mice. All the infected but untreated control mice died within 9 days. The 50% effective dose (ED50) values were calculated by a computerized program (GraphPad) from the survival rates on day 9 after infection.

M. catarrhalis CIP73.21T = assay: Antibacterial activity (MIC/MBC); type: cell-based; settings: Moraxella catarrhalis
[4] = tested on: E. faecalis VRE CIP 104676; assay: Antibacterial activity (MIC/MBC); type: cell-based, Enterococcus faecalis; settings: Enterococcus faecalis, E. faecalis VRE CIP 104676
H. influenzae CIP 102514 = assay: Antibacterial activity (MIC/MBC); type: cell-based, Haemophilus influenzae; settings: Haemophilus influenzae, CIP102514
[5] = tested on: S. pneumoniae PRSP clinical isolate; assay: Antibacterial activity (MIC/MBC); type: cell-based, Streptococcus pneumoniae; settings: Streptococcus pneumoniae; for MIC: PRSP
[6] = tested on: S. pneumoniae PSSP CIP 6.92; assay: Antibacterial activity (MIC/MBC); type: cell-based; settings: Streptococcus pneumoniae, CIP6
[7] = tested on: S. pneumoniae PRSP CIP 104471; assay: Antibacterial activity (MIC/MBC); type: cell-based, Streptococcus pneumoniae; settings: Streptococcus pneumoniae; for MIC: read-out: MIC
[8] = tested on: two strains of penicillin-resistant Streptococcus pneumoniae PRSP (CIP 104471 and a clinical isolate); assay: Antibacterial activity (MIC/MBC), summary in text; type: cell-based; settings: S. pneumoniae PRSP (CIP 104471 and a clinical isolate)
[9] = Stability in solution at pH 1 (HPLC purity over time); type: physicochemical; settings: for Purity of the hybrid molecules (as a percentage) as a function of time (hours): pH 1, 37° C.
Protocol: The stability of the aminoquinoline-cephalosporin_hybrid molecules given as examples was determined in solution at 37° C., at physiological pH (pH 7, phosphate buffer/acetonitrile, 75/25 v/v) and at acidic pH (pH 1, 0.1 M HCl/ethanol, 70/30 v/v) by high pressure liquid chromatography coupled to a UV-visible detector (Beckman Coulter ODS C18 column, 5 μm, 4.6×250 mm; eluents: A: 0.1% TFA, B: CH3CN/H2O 90/10 0.1% TFA, gradient: from 10% to 100% of B in 30 minutes, and then 100% of B for 10 minutes, flow rate 1 mL/minutes, λ=254 nm, volume injected: 10 μL).

[10] = S. aureus CIP 4.83, without serum (Table VI)
[11] = Staphylococcus aureus, S. aureus CIP 4.83, +50% human serum, read-out: MIC in the presence of human serum
[12] = Staphylococcus aureus, S. aureus MSSA CIP 4.83
[13] = Staphylococcus aureus, S. aureus MSSA CIP 4.83, read-out: MIC
[14] = +50% human serum, read-out: MIC in the presence of human serum
[15] = without serum (Table VI), read-out: MIC

| SMILES | MBC (S. pyogenes CIP 56.41T) [µg/mL] | MIC (S. pyogenes CIP 56.41T) [µg/mL] | MIC [2, 10] [µg/mL] | MIC [2, 11] [µg/mL] | MBC [2, 12] [µg/mL] | MIC [2, 13] [µg/mL] | ED50 [3] [mg/kg] | MBC (M. catarrhalis CIP73.21T) [µg/mL] | MIC (M. catarrhalis CIP73.21T) [µg/mL] | MBC [4] [µg/mL] | MBC [5] [µg/mL] | MIC [5, 14] [µg/mL] | MIC ([5]; read-out: MIC) [µg/mL] | MIC [5, 15] [µg/mL] | MBC [6] [µg/mL] | MIC [6] [µg/mL] | MBC [7] [µg/mL] | MIC [7] [µg/mL] | other results |
| --- | --- | --- | --- | --- | --- | --- | --- | --- | --- | --- | --- | --- | --- | --- | --- | --- | --- | --- | --- |
| CC(=O)OCC1=C(C(=O)O)N2C(=O)[C@@H](NC(=O)CNc3ccnc4cc(Cl)ccc34)[C@H]2SC1 [PA 1046, (6R,7R)-3-Acetoxymethyl-7-[2-(7-chloroquinolin-4-ylamino)-acetylamino]-8-oxo-5-thia-1-aza-bicyclo[4.2.0]oct-2-ene-2-carboxylic acid] | 0.003 (≈ 0.00611 µM) | 0.003 (≈ 0.00611 µM) | 0.2 (≈ 0.407 µM) | 0.78 | > 50 | 0.2 (≈ 0.407 µM) | 0.04 | 0.78 (≈ 1.59 µM) | 0.78 (≈ 1.59 µM) | 50 (≈ 102 µM) | 0.1 (≈ 0.204 µM) | 1.56 | 0.05 (≈ 0.102 µM) | 0.2 (≈ 0.407 µM) | 0.012 (≈ 0.0244 µM) | 0.012 (≈ 0.0244 µM) | 0.025 (≈ 0.0509 µM) | 0.006 (≈ 0.0122 µM) | Survival (%) (Oral toxicity in mice; 100 mg/kg orally on day 0 and day 2, mice): 5/5 (100%); Survival (%) (Oral toxicity in mice; 200 mg/kg orally on day 0 and day 2, mice): 5/5 (100%); % of survival cells compared to the untreated controls ([1]; 7.8 μg/mL): −5.6%; % of survival cells compared to the untreated controls ([1]; 15.6 μg/mL): −8.3%; % of survival cells compared to the untreated controls ([1]; 31.2 μg/mL): −5.6%; % of survival cells compared to the untreated controls ([1]; 62.5 μg/mL): −9.0%; % of survival cells compared to the untreated controls ([1]; 125 μg/mL): −14.1%; % of survival cells compared to the untreated controls ([1]; 250 μg/mL): −17.8%; % of survival cells compared to the untreated controls ([1]; 500 μg/mL): −18.1%; MBC (H. influenzae CIP 102514): 25 µg/mL (≈ 50.9 µM) |
| CO/N=C(\C(=O)N[C@@H]1C(=O)N2C(C(=O)O)=C(CSc3nc(=O)c(=O)[nH]n3C)CS[C@H]12)c1csc(N)n1 [Ceftriaxone, reference compound] | 0.006 (≈ 0.0108 µM) | 0.006 (≈ 0.0108 µM) | 0.20 (≈ 0.361 µM) | 25 | > 50 | 0.2 (≈ 0.361 µM) | 0.09 | 0.0015 (≈ 0.0027 µM) | < 0.01 | 50 (≈ 90.2 µM) | 0.78 (≈ 1.41 µM) | 12.5 | 0.39 (≈ 0.703 µM) | 0.78 (≈ 1.41 µM) | 0.006 (≈ 0.0108 µM) | 0.006 (≈ 0.0108 µM) | 0.39 (≈ 0.703 µM) | 0.05 (≈ 0.0902 µM) | MIC [8]: 0.05 µg/mL (≈ 0.0902 µM); MIC ([4]; read-out: MIC): 1.56 µg/mL (≈ 2.81 µM); MBC (H. influenzae CIP 102514; H. influenzae CIP 102514, read-out: MBC): 1.56 µg/mL (≈ 2.81 µM); MIC (H. influenzae CIP 102514; H. influenzae CIP 102514, read-out: MIC): < 0.001 µg/mL; half-life ([9]; 0.1 M HCl/ethanol solution, pH 1 in solution at 37° C.): < 2 h; Purity of the hybrid molecules (as a percentage) as a function of time (hours) ([9]; time 0 h): 100%; Purity of the hybrid molecules (as a percentage) as a function of time (hours) ([9]; time 1 h): 67%; Purity of the hybrid molecules (as a percentage) as a function of time (hours) ([9]; time 2 h): 46%; Purity of the hybrid molecules (as a percentage) as a function of time (hours) ([9]; time 4 h): 21%; Purity of the hybrid molecules (as a percentage) as a function of time (hours) ([9]; time 6 h): 4%; time until practically totally degraded ([9]; pH 1 in solution at 37° C.): less than 6 hr |
